Results as given in US20250353835A1, “N-TETRAZOLYL ARYL UREA-BASED DERIVATIVES, PREPARATION METHOD THEREFOR, AND USE THEREOF” (Hangzhou Yirui Pharmaceutical Technology Co., Ltd, priority 2022, published 2025).

Biological target: T1, human B1R (Homo sapiens, UniProt P46663)
T1 construct: host or cells: HEK293
T1 sequence (P46663 1-353): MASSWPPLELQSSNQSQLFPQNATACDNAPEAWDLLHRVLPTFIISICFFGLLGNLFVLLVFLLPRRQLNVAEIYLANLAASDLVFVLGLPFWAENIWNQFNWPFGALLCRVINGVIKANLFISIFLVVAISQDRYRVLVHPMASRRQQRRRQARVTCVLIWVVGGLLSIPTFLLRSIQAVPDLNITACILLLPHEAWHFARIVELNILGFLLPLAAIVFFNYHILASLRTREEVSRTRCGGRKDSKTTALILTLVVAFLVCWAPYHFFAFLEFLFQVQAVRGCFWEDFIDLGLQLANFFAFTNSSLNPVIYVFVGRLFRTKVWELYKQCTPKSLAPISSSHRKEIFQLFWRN
Test: FLIPR calcium ion flux assay, inhibitory activity against human B1R
Assay type: cell-based
Settings: HEK293 cells stably expressing human B1R; agonist [Lys-des-Arg9]-Bradykinin 4.6 nM (EC80); FLIPR method
Protocol: The inhibitory activity of the compounds against human B1R and B2R channels was determined by calcium ion flux assay using fluorometric imaging plate reader (FLIPR method). See literatures of Lee, Chen et al. for the method. [Lee et al. 2008][Chen et al. 2011]
1. Cell culture: HEK293 recombinant cell lines (WuXi AppTec, Shanghai, China) stably expressing human B1R and B2R were cultured in DMEM (Invitrogen, Cat #11965) medium containing 10% calf serum (Excellbio, Cat #FSP500), 5 μg/ml Geneticin (Invitrogen, Cat #10131) and Penicillin/Streptomycin (Invitrogen, Cat #15140). The incubator conditions were 37° C. and ambient humidity containing 5% CO2.
2. Preparation of the cell assay plate: B1R and B2R cells were seeded in a 384-well assay plate (Greiner, Cat #781090) at a density of 20,000 cells per well (20 μl/well), and cultured overnight at 37° C. in an incubator with 5% CO2. The next day, Fluo-4 Direct™ Loading Buffer (containing 5 mM Probenicid) containing 2× (8 μM) Fluo-4 Direct (Invitrogen, Cat #F10471) was added to each of the wells. The cells were cultured at 37° C. for 50 min, and then culture for at the room temperature 10 min.
3. Preparation of the compound assay plate: The compound was dissolved in 100% DMSO to make a 30 mM stock solution and stored at −20° C. On the day of use, the stock solution of the compound was thawed at the room temperature. Each of the compounds was serially diluted at 1:5 in DMSO culture medium with a starting concentration of 30 μM for 9 concentration points on a 384-well plate. Each of compounds was diluted in duplicate for testing. [Des-Arg10]-HOE140 was used as a positive control compound, and diluted in the same manner with a starting concentration of 3 μM.
4. FLIPR assay: The cell assay plate was placed in a FLIPR instrument ([…]). The compounds in the compound assay plate were added to the corresponding wells on the cell assay plate (10 μL/well) using an automatic program. The calcium ion fluorescence signal was recorded to determine whether the compound may have agonist activity. After 10 minutes, a B1R agonist [Lys-des-Arg9]-Bradykinin2 (10 μL/well) with a final concentration of 4.6 nM (EC80) was added to each of the wells to stimulate the generation of intracellular calcium ion flux signals. The Ca^++-dependent fluorescence signal was continuously monitored at a wavelength of 538 nm to analyze the inhibitory activity of the compound.
5. Data analysis: The data was collected and analyzed by a FLIPR program. The inhibitory (or agonist) activity of the compound at each concentration was evaluated by the fluorescence peak. The IC50 values of the compounds were calculated using EXCEL and PRISM programs.

| Compound | IC50 [nM] |
| --- | --- |
| COc1ccc(-c2ccc(NC(=O)N3CCC(C(C)(C)C)CC3)cc2-c2nn[nH]n2)cc1OC [Compound 1, 4-(tert-butyl)-N-(3′,4′-dimethoxy-2-(2H-tetrazol-5-yl)-[1,1′-biphenyl]-4-yl)piperidine-1-carboxamide] | 40 |
| COc1ccc(-c2ccc(NC(=O)N3CCC4(CCCO4)CC3)cc2-c2nn[nH]n2)cc1OC [Compound 3, N-(3′,4′-dimethoxy-2-(2H-tetrazol-5-yl)-[1,1′-biphenyl]-4-yl)-1-oxy-8-azaspiro[4.5]decane-1-carboxamide] | 1330 |
| COc1ccc(-c2ccc(NC(=O)N3CCC4CCOC4C3)cc2-c2nn[nH]n2)cc1OC (stereo not shown) [Compound 4, N-(3′,4′-dimethoxy-2-(2H-tetrazol-5-yl)-[1,1′-biphenyl]-4-yl)hexahydrofuro[2,3-c]pyridine-6(2H)-carboxamide] | 5320 |
| CCOc1ccc(-c2ccc(NC(=O)N3CCC(C)CC3)cc2-c2nn[nH]n2)cn1 [Compound 5, N-(4-(6-ethoxypyrid-3-yl)-3-(2H-tetrazol-5-yl)phenyl)-4-methylpiperidine-1-carboxamide] | 162 |
| CCOc1ccc(-c2ccc(NC(=O)N3CCC(C(C)(C)C)CC3)cc2-c2nn[nH]n2)cn1 [Compound 6, 4-(tert-butyl)-N-(4-(6-ethoxypyrid-3-yl)-3-(2H-tetrazol-5-yl)phenyl)piperidine-1-carboxamide] | 23.6 |
| CCOc1ccc(-c2ncc(NC(=O)N3CCC(C(C)(C)C)CC3)cc2-c2nn[nH]n2)cn1 [Compound 7, 4-(tert-butyl)-N-(6′-ethoxy-3-(2H-tetrazol-5-yl)-[2,3′-bipyridyl]-5-yl)piperidine-1-carboxamide] | 57.8 |
| CC(C)(C)C1CCN(C(=O)Nc2ccc(-c3cnn(C4CCC4)c3)c(-c3nn[nH]n3)c2)CC1 [Compound 9, 4-(tert-butyl)-N-(4-(1-cyclobutyl-1H-pyrazol-4-yl)-3-(2H-tetrazol-5-yl)phenyl) piperidine-1-carboxamide] | 45.9 |
| Cn1ncc2cc(-c3ccc(NC(=O)N4CCC(C(C)(C)C)CC4)cc3-c3nn[nH]n3)ccc21 [Compound 10, 4-(tert-butyl)-N-(4-(1-methyl-1H-indazol-5-yl)-3-(2H-tetrazol-5-yl)phenyl)piperidine-1-carboxamide] | 18.3 |
| COc1ccc(-c2ccc(NC(=O)N3CCC(C)(C)CC3)cc2-c2nn[nH]n2)cc1OC [Compound 12, N-(3′,4′-dimethoxy-2-(2H-tetrazol-5-yl)-[1,1′-biphenyl]-4-yl)-4,4-dimethylpiperidine-1-carboxamide] | 148 |
| COc1ccc(-c2ccc(NC(=O)N3CCC(C(C)(C)C)CC3)cc2-c2nn[nH]n2)cc1C [Compound 13, 4-(tert-butyl)-N-(4′-methoxy-3′-methyl-2-(2H-tetrazol-5-yl)-[1,1′-biphenyl]-4-yl)piperidine-1-carboxamide] | 26.2 |
| COc1ccc(-c2ccc(NC(=O)N3CCC(C(C)(C)C)CC3)cc2-c2nn[nH]n2)cc1Cl [Compound 14, 4-(tert-butyl)-N-(3′-chloro-4′-methoxy-2-(2H-tetrazol-5-yl)-[1,1′-biphenyl]-4-yl)piperidine-1-carboxamide] | 23.5 |
| CC(C)(C)C1CCN(C(=O)Nc2ccc(C(=O)OC3CCCCC3)c(-c3nn[nH]n3)c2)CC1 [Compound 15, cyclohexyl 4-(4-(tert-butyl)piperidine-1-formamido)-2-(2H-tetrazol-5-yl)benzoate] | 39.8 |
| CCOC(=O)c1ccc(NC(=O)N2CCC(C(C)(C)C)CC2)cc1-c1nn[nH]n1 [Compound 16, ethyl 4-(4-(tert-butyl)piperidine-1-formamido)-2-(2H-tetrazol-5-yl)benzoate] | 28.2 |
| CC(C)(C)C1CCN(C(=O)Nc2cc(F)c(C(=O)OC3CCCCC3)c(-c3nn[nH]n3)c2)CC1 [Compound 17, cyclohexyl 4-(4-(tert-butyl)piperidine-1-formamido)-2-fluoro-6-(2H-tetrazol-5-yl)benzoate] | 29.6 |
| CC(C)(C)C1CCN(C(=O)Nc2cc(F)c(-c3ccc(C(F)(F)F)nc3)c(-c3nn[nH]n3)c2)CC1 [Compound 18, 4-(tert-butyl)-N-(3-fluoro-5-(2H-tetrazol-5-yl)-4-(6-(trifluoromethyl)pyrid-3-yl)phenyl)piperidine-1-carboxamide] | 9.9 |
| COc1ccc(-c2ccc(NS(=O)(=O)N3CCC(C)CC3)cc2-c2nn[nH]n2)cc1OC [Compound 19, N-(3′,4′-dimethoxy-2-(2H-tetrazol-5-yl)-[1,1′-biphenyl]-4-yl)-4-methylpiperidine-1-sulfamide] | 1140 |
| COc1ccc(-c2c(F)cc(NC(=O)N3CCC(C)CC3)cc2-c2nn[nH]n2)cc1OC [Compound 20, N-(2-fluoro-3′,4′-dimethoxy-6-(2H-tetrazol-5-yl)-[1,1′-biphenyl]-4-yl)-4-methyl piperidine-1-carboxamide] | 32.3 |
| CC1CCN(C(=O)Nc2ccc(-c3ccc4c(cnn4C)c3)c(-c3nn[nH]n3)c2)CC1 [Compound 21, 4-methyl-N-(4-(1-methyl-1H-indazol-5-yl)-3-(2H-tetrazol-5-yl)phenyl)piperidine-1-carboxamide] | 21.1 |
| COc1ccc(-c2ccc(NC(=O)N3CCC(C)CC3)cc2-c2nn[nH]n2)cc1Cl [Compound 22, N-(3′-chloro-4′-methoxy-2-(2H-tetrazol-5-yl)-[1,1′-biphenyl]-4-yl)-4-methylpiperidine-1-carboxamide] | 30.2 |
| CC1CCN(C(=O)Nc2cc(F)c(C(=O)OC3CCCCC3)c(-c3nn[nH]n3)c2)CC1 [Compound 23, cyclohexyl 2-fluoro-4-(4-methylpiperidine-1-formamido)-6-(2H-tetrazol-5-yl)benzoate] | 44.6 |
| CCOC(=O)c1ccc(NC(=O)N2CCC(C)CC2)cc1-c1nn[nH]n1 [Compound 24, ethyl 4-(4-methylpiperidine-1-formamido)-2-(2H-tetrazol-5-yl)benzoate] | 35.7 |
| COc1ccc(-c2c(F)cc(NC(=O)N3CCC(C(F)(F)F)CC3)cc2-c2nn[nH]n2)cc1OC [Compound 26, N-(2-fluoro-3′,4′-dimethoxy-6-(2H-tetrazol-5-yl)-[1,1′-biphenyl]-4-yl)-4-(trifluoromethyl)piperidine-1-carboxamide] | 54.4 |
| Cn1ncc2cc(-c3ccc(NC(=O)N4CCC(C(F)(F)F)CC4)cc3-c3nn[nH]n3)ccc21 [Compound 27, N-(4-(1-methyl-1H-indazol-5-yl)-3-(2H-tetrazol-5-yl)phenyl)-4-(trifluoromethyl)piperidine-1-carboxamide] | 25.7 |
| COc1ccc(-c2ccc(NC(=O)N3CCC(C(F)(F)F)CC3)cc2-c2nn[nH]n2)cc1Cl [Compound 28, N-(3′-chloro-4′-methoxy-2-(2H-tetrazol-5-yl)-[1,1′-biphenyl]-4-yl)-4-(trifluoromethyl)piperidine-1-carboxamide] | 24.5 |
| O=C(OC1CCCCC1)c1c(F)cc(NC(=O)N2CCC(C(F)(F)F)CC2)cc1-c1nn[nH]n1 [Compound 29, cyclohexyl 2-fluoro-6-(2H-tetrazol-5-yl)-4-(4-(trifluoromethyl)piperidine-1-formamido)benzoate] | 34.6 |
| CCOC(=O)c1ccc(NC(=O)N2CCC(C(F)(F)F)CC2)cc1-c1nn[nH]n1 [Compound 30] | 35.4 |
| CCOc1ccc(-c2c(F)cc(NC(=O)N3CCC(C)CC3)cc2-c2nn[nH]n2)cn1 [Compound 31, N-(4-(6-ethoxypyrid-3-yl)-3-fluoro-5-(2H-tetrazol-5-yl)phenyl)-4-methylpiperidine-1-carboxamide] | 19.2 |
| Cn1ncc2cc(-c3c(F)cc(NC(=O)N4CCC(C(C)(C)C)CC4)cc3-c3nn[nH]n3)ccc21 [Compound 32, 4-(tert-butyl)-N-(3-fluoro-4-(1-methyl-1H-indazol-5-yl)-5-(2H-tetrazol-5-yl)phenyl)piperidine-1-carboxamide] | 14.2 |
